According to US20190292174A1, “MICROBIOCIDAL OXADIAZOLE DERIVATIVES” (SYNGENTA PARTICIPATIONS AG, priority 2016, published 2019):

What was measured:
Phakopsora pachyrhizi = Phakopsora pachyrhizi / soybean / leaf disc preventative (Asian soybean rust); type: in vivo; settings: foliar, soybean leaf disks, compared to untreated control
Description: Leaf disks or leaf segments of various plant species are cut from plants grown in a greenhouse. The cut leaf disks or segments are placed in multiwell plates (24-well format) onto water agar. The leaf disks are sprayed with a test solution before (preventative) or after (curative) inoculation. Compounds to be tested are prepared as DMSO solutions (max. 10 mg/ml) which are diluted to the appropriate concentration with 0.025% Tween20 just before spraying. The inoculated leaf disks or segments are incubated under defined conditions (temperature, relative humidity, light, etc.) according to the respective test system. A single evaluation of disease level is carried out 3 to 14 days after inoculation, depending on the pathosystem. Percent disease control relative to the untreated check leaf disks or segments is then calculated. Soybean leaf disks are placed on water agar in multiwell plates (24-well format) and sprayed with the formulated test compound diluted in water. One day after application leaf discs are inoculated by spraying a spore suspension on the lower leaf surface. After an incubation period in a climate cabinet of 24-36 hours in darkness at 20° C., and 75% rh leaf disc are kept at 20° C. with 12 h light/day and 75% rh. The activity of a compound is assessed as percent disease control compared to untreated when an appropriate level of disease damage appears in untreated check leaf disks (12-14 days after application).

[1] = test system: Puccinia recondita f. sp. tritici; test: Puccinia recondita f. sp. tritici / wheat / leaf disc preventative (brown rust); type: in vivo; settings: foliar, wheat leaf segments cv. Kanzler, preventative (inoculated 1 day after application), compared to untreated control
Description: Leaf disks or leaf segments of various plant species are cut from plants grown in a greenhouse. The cut leaf disks or segments are placed in multiwell plates (24-well format) onto water agar. The leaf disks are sprayed with a test solution before (preventative) or after (curative) inoculation. Compounds to be tested are prepared as DMSO solutions (max. 10 mg/ml) which are diluted to the appropriate concentration with 0.025% Tween20 just before spraying. The inoculated leaf disks or segments are incubated under defined conditions (temperature, relative humidity, light, etc.) according to the respective test system. A single evaluation of disease level is carried out 3 to 14 days after inoculation, depending on the pathosystem. Percent disease control relative to the untreated check leaf disks or segments is then calculated. Wheat leaf segments cv. Kanzler are placed on agar in multiwell plates (24-well format) and sprayed with the formulated test compound diluted in water. The leaf disks are inoculated with a spore suspension of the fungus 1 day after application. The inoculated leaf segments are incubated at 19° C. and 75% rh under a light regime of 12 h light/12 h darkness in a climate cabinet and the activity of a compound is assessed as percent disease control compared to untreated when an appropriate level of disease damage appears in untreated check leaf segments (7-9 days after application).

[2] = test system: Glomerella lagenarium (Colletotrichum lagenarium); test: Glomerella lagenarium (Colletotrichum lagenarium) liquid culture / cucumber / preventative (anthracnose); type: cell-based; settings: Colletotrichum orbiculare, liquid culture (PDB), growth inhibition measured photometrically 3-4 days after application, compared to untreated control
Description: […] fragments or conidia suspensions of a fungus prepared either freshly from liquid cultures of the fungus or from cryogenic storage, are directly mixed into nutrient broth. DMSO solutions of the test compound (max. 10 mg/ml) are diluted with 0.025% Tween20 by a factor of 50 and 10 μl of this solution is pipetted into a microtiter plate (96-well format). The nutrient broth containing the fungal spores/mycelia fragments is then added to give an end concentration of the tested compound. The test plates are incubated in the dark at 24° C., and 96% relative humidity. The inhibition of fungal growth is determined photometrically after 2 to 7 days, depending on the pathosystem, and percent antifungal activity relative to the untreated check is calculated. Conidia of the fungus from cryogenic storage are directly mixed into nutrient broth (PDB potato dextrose broth). Alter placing a (DMSO) solution of test compound into a microtiter plate (96-well format), the nutrient broth containing the fungal spores is added. The test plates are incubated at 24° C., and the inhibition of growth is measured photometrically 3-4 days after application.

[3] = test system: Puccinia recondita f. sp. tritici; test: Puccinia recondita f. sp. tritici / wheat / leaf disc curative (brown rust); type: in vivo; settings: foliar, 24 h, wheat leaf segments cv. Kanzler, curative (applied 1 day after inoculation), compared to untreated control, read-out: control of Puccinia recondita f. sp. tritic
Description: Leaf disks or leaf segments of various plant species are cut from plants grown in a greenhouse. The cut leaf disks or segments are placed in multiwell plates (24-well format) onto water agar. The leaf disks are sprayed with a test solution before (preventative) or after (curative) inoculation. Compounds to be tested are prepared as DMSO solutions (max. 10 mg/ml) which are diluted to the appropriate concentration with 0.025% Tween20 just before spraying. The inoculated leaf disks or segments are incubated under defined conditions (temperature, relative humidity, light, etc.) according to the respective test system. A single evaluation of disease level is carried out 3 to 14 days after inoculation, depending on the pathosystem. Percent disease control relative to the untreated check leaf disks or segments is then calculated. Wheat leaf segments cv. Kanzler are placed on agar in multiwell plates (24-well format). The leaf segments are inoculated with a spore suspension of the fungus. Plates are stored in darkness at 19° C., and 75% rh. The formulated test compound diluted in water is applied 1 day after inoculation. The leaf segments are incubated at 19° C., and 75% rh under a light regime of 12 h light/12 h darkness in a climate cabinet and the activity of a compound is assessed as percent disease control compared to untreated when an appropriate level of disease damage appears in untreated check leaf segments (6-8 days after application).

SMILES	melting point	pest or weed control at 200 ppm (Phakopsora pachyrhizi)	pest or weed control at 200 ppm [1]	inhibition of growth at 20 ppm [2]	pest or weed control at 200 ppm [3]
O=C(NN1CCCCC1=O)c1ccc(-c2noc(C(F)(F)F)n2)cc1 [Compound 1.7, N-(2-oxo-1-piperidyl)-4-[5-(trifluoromethyl)-1,2,4-oxadiazol-3-yl]benzamide]	192 to 216 °C	≥ 80%	≥ 80%	–	–
CC(C)(C)NC(=O)CN(C(=O)c1ccc(-c2noc(C(F)(F)F)n2)cc1)N1CCOC1=O [Compound 1.2, N-[2-(tert-butylamino)-2-oxo-ethyl]-N-(2-oxooxazolidin-3-yl)-4-[5-(trifluoromethyl)-1,2,4-oxadiazol-3-yl]benzamide]	–	≥ 80%	≥ 80%	–	–
O=C(NN1CCCCC1=O)c1c(F)cc(-c2noc(C(F)(F)F)n2)cc1F [Compound 1.12, 2,6-difluoro-N-(2-oxo-1-piperidyl)-4-[5-(trifluoromethyl)-1,2,4-oxadiazol-3-yl]benzamide]	205 to 209 °C	–	–	≥ 80%	–
O=C1CN(NC(=O)c2ccc(-c3noc(C(F)(F)F)n3)cc2)C(=O)N1 [Compound 1.9]	192 to 196 °C	≥ 80%	–	–	≥ 80%
NN(C(=O)c1ccccc1)C(=O)c1ccc(-c2noc(C(F)(F)F)n2)cc1 [Compound 1.5, N-benzoyl-4-[5-(trifluoromethyl)-1,2,4-oxadiazol-3-yl]benzohydrazide]	115.3 to 118.6 °C	–	≥ 80%	≥ 80%	–
CC(=O)NNC(=O)c1ccc(-c2noc(C(F)(F)F)n2)cc1F [Compound 1.4, N′-acetyl-2-fluoro-4-[5-(trifluoromethyl)-1,2,4-oxadiazol-3-yl]benzohydrazide]	–	≥ 80%	≥ 80%	–	≥ 80%
O=C(Nn1ccc2ccccc21)c1ccc(-c2noc(C(F)(F)F)n2)cc1 [Compound 1.11, N-indol-1-yl-4-[5-(trifluoromethyl)-1,2,4-oxadiazol-3-yl]benzamide]	188 to 190 °C	–	≥ 80%	≥ 80%	–
O=C(NN1CCc2ccccc21)c1ccc(-c2noc(C(F)(F)F)n2)cc1 [Compound 1.10, N-indolin-1-yl-4-[5-(trifluoromethyl)-1,2,4-oxadiazol-3-yl]benzamide]	167 to 170 °C	–	≥ 80%	≥ 80%	–
CN1CCN(NC(=O)c2ccc(-c3noc(C(F)(F)F)n3)cc2)C1=O [Compound 1.8, N-(3-methyl-2-oxo-imidazolidin-1-yl)-4-[5-(trifluoromethyl)-1,2,4-oxadiazol-3-yl]benzamide]	238 to 245 °C	≥ 80%	≥ 80%	–	–
Cc1cc(-c2noc(C(F)(F)F)n2)cnc1C(=O)NN1CCCCC1=O [Compound 1.13, 3-methyl-N-(2-oxo-1-piperidyl)-5-[5-(trifluoromethyl)-1,2,4-oxadiazol-3-yl]pyridine-2-carboxamide]	159 to 162 °C	–	–	–	–

More lines, main results first:

melting point	SMILES	pest or weed control at 200 ppm (Phakopsora pachyrhizi)	pest or weed control at 200 ppm [1]	inhibition of growth at 20 ppm [2]	pest or weed control at 200 ppm [3]
146 to 166 °C	O=C(NN1CCOC1=O)c1ccc(-c2noc(C(F)(F)F)n2)c(F)c1 [Compound 1.25, 3-fluoro-N-(2-oxooxazolidin-3-yl)-4-[5-(trifluorormethyl)-1,2,4-oxadiazol-3-yl]benzamide]	–	≥ 80%	≥ 80%	≥ 80%
154 to 156 °C	O=C(Cc1ccc(-c2noc(C(F)(F)F)n2)cc1F)NN1CCCCC1=O [Compound 1.29, 2-[2-fluoro-4-[5-(trifluoromethyl)-1,2,4-oxadiazol-3-yl]phenyl]-N-(2-oxo-1-piperidyl)acetamide]	–	≥ 80%	≥ 80%	≥ 80%
201 to 203 °C	O=C(Cc1ccc(-c2noc(C(F)(F)F)n2)cc1F)NN1CCOCC1 [Compound 1.28, 2-[2-fluoro-4-[5-(trifluoromethyl)-1,2,4-oxadiazoi-3-yl]phenyl]-N-morpholino-acetamide]	–	–	≥ 80%	≥ 80%
207 to 209 °C	O=C(Cc1ccc(-c2noc(C(F)(F)F)n2)c(F)c1)NN1CCOCC1 [Compound 1.31, 2-[3-fluoro-4-[5-(trifluoromethyl)-1,2,4-oxadiazol-3-yl]phenyl]-N-morpholino-acetamide]	–	–	–	≥ 80%
140 to 149 °C	O=C(NNCCO)c1ccc(-c2noc(C(F)(F)F)n2)cc1 [Compound 1.18, N′-(2-hydroxyethyl)-4-[5-(trifluoromethyl)-1,2,4-oxadiazol-3-yl]benzohydrazide]	–	≥ 80%	≥ 80%	≥ 80%
165 to 170 °C	O=C(Cc1ccc(-c2noc(C(F)(F)F)n2)cc1)NN1CCCCC1=O [Compound 1.14, N-(2-oxo-1-piperidyl)-2-[4-[5-(trifluoromethyl)-1,2,4-oxadiazol-3-yl]phenyl]acetamide]	≥ 80%	≥ 80%	–	≥ 80%
161 to 163 °C	O=C(Cc1ccc(-c2noc(C(F)(F)F)n2)c(F)c1)NN1CCCCC1=O [Compound 1.32, 2-[3-flouro-4-[5-(trifluoromethyl)-1,2,4-oxadiazol-3-yl]phenyl]-N-(2-oxo-1-piperidyl)acetamide]	–	≥ 80%	≥ 80%	≥ 80%
163 to 165 °C	CN(C)NC(=O)Cc1ccc(-c2noc(C(F)(F)F)n2)c(F)c1 [Compound 1.30, 2-[3-fluoro-4-[5-(trifluoromethyl)-1,2,4-oxadiazol-3-yl]phenyl]-N′,N′-dimethyl-acetohydrazide]	–	≥ 80%	≥ 80%	≥ 80%
182 to 188 °C	O=C(Cc1ccc(-c2noc(C(F)(F)F)n2)cc1)NN1CCOCC1 [Compound 1.17, N-morpholino-2-[4-[5-(trifluoromethyl)-1,2,4-oxadiazol-3-yl]phenyl]acetamide]	≥ 80%	≥ 80%	–	≥ 80%
140 to 160 °C	O=C(NN1CCOCC1)c1ccc(-c2noc(C(F)(F)F)n2)c(F)c1 [Compound 1.16, 3-fluoro-N-morpholino-4-[5-(trifluoromethyl)-1,2,4-oxadiazol-3-yl]benzamide]	≥ 80%	≥ 80%	–	–
